From publication PMC3282108 (ACS Chemical Biology, 2008)

Columns and labels:
HER2 = assay: Western blot of HER2 levels in BT474 cells; format: cell-based, human; details: compound 8 1 μM, 6, 12, 24 h, 17-AAG 0.178 μM
Hsp70 = assay: Western blot of Hsp70 levels in BT474 and SKBR3 cells; format: cell-based, human; details: 17-AAG 0.178 μM, compound 8 1 or 5 μM
cancer patients = details: cited from earlier work
[1] = test system: BT474 breast cancer cells; assay: WST-1 colorimetric cell proliferation assay, BT474; format: cell-based, human; details: WST-1, concentration-dependent cell killing
[2] = cited from earlier work

For `C=CCNC1=C2C[C@@H](C)C[C@H](OC)[C@H](O)[C@@H](C)/C=C(\C)[C@H](OC(N)=O)[C@@H](OC)/C=C\C=C(/C)C(=O)NC(=CC1=O)C2=O` [Compound 17-AAG, 17-Allylamino-17-demethoxygeldanamycin], the “HER2 levels in BT474 cells” value (HER2) is listed as “time-dependent decrease in HER2 levels”, the “Hsp70 levels” value (Hsp70) is listed as “significant increase in Hsp70 levels” and the “most common dose-limiting side effects” value (cancer patients) is listed as “anorexia, nausea, diarrhea, hepatoxicity, fatigue, thrombocytopenia, and anemia”. For the same molecule, the “cell killing selectivity, BT474 versus SKBR3 and MCF-12F” value [1] was “significantly more potent in killing BT474 cells than SKBR3 and normal cells” and the “solubility in aqueous solution” value [2] was “low solubility in aqueous solution”.
